# Where a name gives a salt, the structure may show the parent alone. Read-outs that look alike come from different tables or passages of the source.
# Key:
# [1] = test system: NCI-H292 lung cancer cells; test: FDA drug screening, complete media vs cholesterol-free media without statin (TABLE 1); assay type: cell-based, human
# [2] = test system: NCI-H292 lung cancer cells; test: FDA drug screening, complete media vs cholesterol-free media with simvastatin (TABLE 2); assay type: cell-based, human
# [3] = Complete minus Cholesterol-free, greater than 0 enhanced anti-cancer activity, about 0 neutral, below 0 antagonist
# [4] = NCI-H292 cells, FDA drug library screen, cholesterol-free media without statin
# [5] = NCI-H292 cells, FDA drug library screen, complete media
# [6] = NCI-H292 cells, FDA drug library screen, cholesterol-free media with simvastatin 0.04 μM
# [7] = complete media vs cholesterol-free media + simvastatin (0.04 μM), >0 enhanced anti-cancer activity, about 0 neutral, <0 antagonist
# [8] = Complete minus Cholesterol-free, greater than 0 enhanced anti-cancer activity, about 0 neutral, below 0 antagonists
# [9] = NCI-H292 cells in cholesterol-free media without statin
# [10] = NCI-H292 cells in complete media
# [11] = NCI-H292 cells, cholesterol-free media without statin, FDA drug library screen
# [12] = NCI-H292 cells, complete media, FDA drug library screen
# [13] = complete vs cholesterol-free media, >0 enhanced anti-cancer activity, about 0 neutral, <0 antagonist
# [14] = NCI-H292 cells, cholesterol-free media with simvastatin 0.04 μM, cell growth value in FDA drug screen
# [15] = NCI-H292 cells, complete media, cell growth value in FDA drug screen
# [16] = complete media minus cholesterol-free media + simvastatin, >0 enhanced anti-cancer activity, about 0 neutral, <0 antagonist
# [17] = NCI-H292 cells, drug in cholesterol-free media with simvastatin 0.04 μM
# [18] = NCI-H292 cells, drug in complete media
# [19] = complete media vs cholesterol-free media + simvastatin (0.04 μM), […]
# [20] = Complete minus Cholesterol-free, […]
# [21] = NCI-H292 cells, cholesterol-free media without statin
# [22] = NCI-H292 cells, FDA library drug in cholesterol-free media with simvastatin 0.04 μM
# [23] = NCI-H292 cells, FDA library drug in complete media
# [24] = Complete minus Cholesterol-free, >0 enhanced anti-cancer activity, about 0 neutral, <0 antagonist
# [25] = complete vs cholesterol-free media, greater than 0 enhanced anti-cancer activity, about 0 neutral, below 0 antagonists
molecule,measurement,setting,value
CCOc1ccc(Cc2cc([C@@H]3O[C@H](SC)[C@@H](O)[C@H](O)[C@H]3O)ccc2Cl)cc1 [Sotagliflozin],Difference,[1]; [3],−0.11
same,Cholesterol-free,[1]; [4],1.101
same,Complete,[1]; [5],0.9895
same,Cholesterol-free media + simvastatin (0.04 μM),[2]; [6],1.193
same,Complete Media,[2]; [5],1.078
same,Difference,[2]; [7],−0.11
CCCCCCCCCCCCCCCCCCOCC(O)CO (stereo not shown) [Batilol],Difference,[1]; [8],−0.55
same,Cholesterol-free,[1]; [9],1.321
same,Complete,[1]; [10],0.7704
same,Cholesterol-free media + simvastatin (0.04 μM),"[2]; NCI-H292 cells, cholesterol-free media with simvastatin 0.04 μM, FDA drug library screen (TABLE 2)",0.9215
same,Complete Media,"[2]; NCI-H292 cells, complete media, FDA drug library screen (TABLE 2)",0.9293
same,Difference,"[2]; complete media minus cholesterol-free media + simvastatin (0.04 μM), >0 enhanced anti-cancer activity, about 0 neutral, <0 antagonist",0.01
C[C@@H](Oc1cc(-c2cnn(C3CCNCC3)c2)cnc1N)c1c(Cl)ccc(F)c1Cl [Crizotinib (hydrochloride)],Cholesterol-free,[1]; [11],0.1813
same,Complete,[1]; [12],0.2796
same,Difference,[1]; [13],0.10
same,Cholesterol-free media + simvastatin (0.04 μM),[2]; [14],0.4168
same,Complete Media,[2]; [15],0.4474
same,Difference,[2]; [16],0.03
CC(C)N(CC[C@H](c1ccccc1)c1cc(CO)ccc1O)C(C)C [Desfesoterodine],Cholesterol-free,[1]; [11],0.7501
same,Complete,[1]; [12],1.3
same,Difference,"[1]; complete vs cholesterol-free media, […]",0.55
same,Cholesterol-free media + simvastatin (0.04 μM),[2]; [17],1.01
same,Complete Media,[2]; [18],0.8395
same,Difference,[2]; [19],−0.17
CN(CCCCCCCCCCN(C)C(=O)Oc1cccc([N+](C)(C)C)c1)C(=O)Oc1cccc([N+](C)(C)C)c1 [Demecarium Bromide],Difference,[1]; [20],−0.29
same,Cholesterol-free,[1]; [21],1.112
same,Complete,"[1]; NCI-H292 cells, complete media",0.8186
same,Cholesterol-free media + simvastatin (0.04 μM),[2]; [22],1.197
same,Complete Media,[2]; [23],0.9059
same,Difference,[2]; [19],−0.29
Deferoxamine (mesylate),Difference,[1]; [3],−0.12
same,Cholesterol-free,[1]; [4],0.9976
same,Complete,[1]; [5],0.8739
same,Cholesterol-free media + simvastatin (0.04 μM),[2]; [22],1.454
same,Difference,[2]; [7],−0.43
Gabexate (mesylate),Difference,[1]; [3],−0.15
same,Cholesterol-free,[1]; [4],1.126
same,Complete,[1]; [5],0.973
same,Cholesterol-free media + simvastatin (0.04 μM),[2]; [17],1.435
same,Complete Media,[2]; [18],1.185
same,Difference,[2]; [7],−0.25
Nc1nc2ccc(OC(F)(F)F)cc2s1 [Riluzole hydrochloride],Difference,[1]; [24],−0.27
same,Cholesterol-free,[1]; [21],1.152
same,Complete,"[1]; NCI-H292 cells, complete media",0.8769
same,Cholesterol-free media + simvastatin (0.04 μM),[2]; [14],0.9663
same,Complete Media,[2]; [15],0.9877
same,Difference,[2]; [16],0.02
CC(C)OC(=O)[C@H](C)N[P@](=O)(CO[C@H](C)Cn1cnc2c(N)ncnc21)Oc1ccccc1 [Tenofovir alafenamide],Cholesterol-free,[1],1.21
same,Complete,[1],0.7227
same,Difference,[1],−0.49
same,Cholesterol-free media + simvastatin (0.04 μM),[2],0.7269
same,Complete Media,[2],0.65
same,Difference,[2],−0.08
N#Cc1ccc(Oc2ccc3c(c2)COB3O)cc1 [Crisaborole],Difference,[1]; [3],−0.14
same,Cholesterol-free,[1]; [4],1.199
same,Complete,[1]; [5],1.059
same,Cholesterol-free media + simvastatin (0.04 μM),[2]; [22],1.417
same,Complete Media,[2]; [23],0.9479
same,Difference,[2]; [7],−0.47
O=C1CCc2cc(OCCCCc3nnnn3C3CCCCC3)ccc2N1 [Cilostazol],Cholesterol-free,[1]; [21],1.501
same,Difference,[1]; [25],−0.33
same,Cholesterol-free media + simvastatin (0.04 μM),[2]; [6],0.8234
same,Complete Media,[2]; [5],0.9809
same,Difference,[2]; [16],0.16
Cc1ncc(CSSCc2cnc(C)c(O)c2CO)c(CO)c1O [Pyrithioxin (dihydrochloride)],Cholesterol-free,[1]; [11],0.8349
same,Complete,[1]; [12],1.062
same,Difference,[1]; [13],0.23
same,Cholesterol-free media + simvastatin (0.04 μM),[2]; [6],0.9622
same,Complete Media,[2]; [5],1.11
same,Difference,[2]; [16],0.15
CC[N+](C)(C)c1cccc(O)c1.[Cl-] [Edrophonium (chloride)],Difference,[1]; [20],−0.15
same,Cholesterol-free,[1]; [4],1.134
same,Complete,[1]; [5],0.9821
same,Cholesterol-free media + simvastatin (0.04 μM),"[2]; NCI-H292 cells, cholesterol-free media with simvastatin 0.04 μM, […]",1.155
same,Complete Media,"[2]; NCI-H292 cells, complete media, […]",1.199
same,Difference,"[2]; complete media minus cholesterol-free media + simvastatin, […]",0.04
CC(=O)O[C@H]1C[C@@H]2CC[C@@H]3[C@H](CC[C@@]4(C)[C@H]3C[C@H]([N+]3(C)CCCCC3)[C@@H]4OC(C)=O)[C@@]2(C)C[C@@H]1N1CCCCC1.[Br-] [Vecuronium (bromide)],Cholesterol-free,[1],1.045
same,Complete,[1],0.9438
same,Difference,[1],−0.10
same,Cholesterol-free media + simvastatin (0.04 μM),[2],0.9802
same,Complete Media,[2],0.9534
same,Difference,[2],−0.03
CC(=O)OCC(=O)[C@@]1(O)CC[C@H]2[C@@H]3CCC4=CC(=O)C=C[C@]4(C)[C@H]3[C@@H](O)C[C@@]21C [Prednisolone acetate],Cholesterol-free,[1]; [21],0.9263
same,Complete,"[1]; NCI-H292 cells, complete media",0.6003
same,Difference,[1]; [25],−0.33
same,Cholesterol-free media + simvastatin (0.04 μM),[2]; [6],0.7463
same,Complete Media,[2]; [5],0.6367
same,Difference,[2]; [7],−0.11
NCCCCCC(=O)O [6-Aminocaproic acid],Cholesterol-free,[1],1.11
same,Complete,[1],1.715
same,Difference,[1],0.60
same,Cholesterol-free media + simvastatin (0.04 μM),[2],1.226
same,Complete Media,[2],1.745
same,Difference,[2],0.52
CCCC(CCC)C(N)=O [Valpromide],Difference,[1]; [24],−0.27
same,Cholesterol-free,[1]; [21],1.075
same,Complete,"[1]; NCI-H292 cells, complete media",0.8044
same,Cholesterol-free media + simvastatin (0.04 μM),[2]; [6],1.404
same,Complete Media,[2]; [5],1.717
same,Difference,[2]; [16],0.31
CC(=O)[C@H]1CC[C@H]2[C@@H]3CC=C4C[C@@H](O)CC[C@]4(C)[C@H]3CC[C@]12C [Pregnenolone],Difference,[1]; [20],−0.56
same,Cholesterol-free,[1]; [9],1.529
same,Complete,[1]; [10],0.9655
same,Cholesterol-free media + simvastatin (0.04 μM),[2]; [22],1.424
same,Complete Media,[2]; [23],0.9118
same,Difference,[2]; [19],−0.51
OCC(S)CS (stereo not shown) [Dimercaprol],Difference,[1]; [3],−0.18
same,Cholesterol-free,[1]; [4],0.9919
same,Complete,[1]; [5],0.8115
same,Cholesterol-free media + simvastatin (0.04 μM),[2]; [6],0.8801
same,Complete Media,[2]; [5],1.094
same,Difference,[2]; [16],0.21
CC(C)OC(=O)C(C)(C)Oc1ccc(C(=O)c2ccc(Cl)cc2)cc1 [Fenofibrate],Difference,[1]; [24],−0.06
same,Cholesterol-free,[1]; [11],0.8551
same,Complete,[1]; [12],0.7932
same,Cholesterol-free media + simvastatin (0.04 μM),[2]; [17],1.641
same,Complete Media,[2]; [18],1.401
same,Difference,[2]; [7],−0.24
CC(=O)OCC1=C(C(=O)O)N2C(=O)[C@@H](NC(=O)Cc3cccs3)[C@H]2SC1 [Cephalothin (sodium)],Cholesterol-free,[1]; [11],0.5607
same,Complete,[1]; [12],1.228
same,Difference,[1]; [13],0.67
same,Cholesterol-free media + simvastatin (0.04 μM),[2]; [17],0.9867
same,Complete Media,[2]; [18],0.7901
same,Difference,[2]; [7],−0.20
Cc1ccc(C(C)C)cc2c(C)ccc1-2 [Guaiazulene],Difference,[1]; [24],−0.21
same,Cholesterol-free,[1]; [21],1.231
same,Complete,"[1]; NCI-H292 cells, complete media",1.025
same,Cholesterol-free media + simvastatin (0.04 μM),[2]; [17],1.916
same,Complete Media,[2]; [18],1.674
same,Difference,[2]; [7],−0.24
CC(C)CN(C[C@@H](OP(=O)(O)O)[C@H](Cc1ccccc1)NC(=O)O[C@H]1CCOC1)S(=O)(=O)c1ccc(N)cc1 [Fosamprenavir],Difference,[1]; [24],−0.06
same,Cholesterol-free,[1]; [11],0.7855
same,Complete,[1]; [12],0.7241
same,Cholesterol-free media + simvastatin (0.04 μM),[2]; [6],1.194
same,Complete Media,[2]; [5],1.12
same,Difference,[2]; [7],−0.07
C[C@@H]1C[C@H]2[C@@H]3CCC4=CC(=O)C=C[C@]4(C)[C@@]3(F)[C@@H](O)C[C@]2(C)[C@@]1(O)C(=O)CO [Dexamethasone],Difference,[1]; [24],0.07
same,Cholesterol-free,[1]; [11],0.7411
same,Complete,[1]; [12],0.8107
same,Cholesterol-free media + simvastatin (0.04 μM),[2]; [6],0.6107
same,Complete Media,[2]; [5],0.7971
same,Difference,[2]; [16],0.19
Quetiapine (hemifumarate),Difference,[1]; [24],−0.22
same,Cholesterol-free,[1]; [21],0.9339
same,Complete,"[1]; NCI-H292 cells, complete media",0.7112
same,Cholesterol-free media + simvastatin (0.04 μM),[2]; [6],0.6141
same,Complete Media,[2]; [5],0.8428
same,Difference,[2]; [16],0.23
C[C@@H]1C[C@H]2[C@@H]3CCC4=CC(=O)C=C[C@]4(C)[C@@]3(Cl)[C@@H](O)C[C@]2(C)[C@@]1(OC(=O)c1ccco1)C(=O)CCl [Mometasone furoate],Difference,[1]; [24],−0.24
same,Cholesterol-free,[1]; [21],0.8128
same,Complete,"[1]; NCI-H292 cells, complete media",0.5699
same,Cholesterol-free media + simvastatin (0.04 μM),[2]; [14],0.7611
same,Complete Media,[2]; [15],0.8877
same,Difference,[2]; [16],0.13
Cc1ccc(O)c([C@H](CCN(C(C)C)C(C)C)c2ccccc2)c1 [Tolterodine],Cholesterol-free,[1],0.9758
same,Complete,[1],1.051
same,Difference,[1],0.08
same,Cholesterol-free media + simvastatin (0.04 μM),[2],1.169
same,Complete Media,[2],0.8561
same,Difference,[2],−0.31
C[Se]CC[C@H](N)C(=O)O [Selenomethionine],Difference,[1]; [8],−0.63
same,Cholesterol-free,[1]; [9],1.898
same,Complete,[1]; [10],1.265
same,Cholesterol-free media + simvastatin (0.04 μM),[2]; [6],1.83
same,Complete Media,[2]; [5],1.71
same,Difference,[2]; [7],−0.12

# From patent US20250144067A1, “PERSONALIZED STARVATION THERAPY FOR CANCER” (Faeth Therapeutics, Inc., priority 2021, published 2025)
